Data: the supplement of paper PMC9005190

Assays:
PAR1 [1] = target: T1, PAR1 (UniProt P25116); experiment: pEC50 of agonist-induced pathway activation (ebBRET)
T1 sequence (whole entry): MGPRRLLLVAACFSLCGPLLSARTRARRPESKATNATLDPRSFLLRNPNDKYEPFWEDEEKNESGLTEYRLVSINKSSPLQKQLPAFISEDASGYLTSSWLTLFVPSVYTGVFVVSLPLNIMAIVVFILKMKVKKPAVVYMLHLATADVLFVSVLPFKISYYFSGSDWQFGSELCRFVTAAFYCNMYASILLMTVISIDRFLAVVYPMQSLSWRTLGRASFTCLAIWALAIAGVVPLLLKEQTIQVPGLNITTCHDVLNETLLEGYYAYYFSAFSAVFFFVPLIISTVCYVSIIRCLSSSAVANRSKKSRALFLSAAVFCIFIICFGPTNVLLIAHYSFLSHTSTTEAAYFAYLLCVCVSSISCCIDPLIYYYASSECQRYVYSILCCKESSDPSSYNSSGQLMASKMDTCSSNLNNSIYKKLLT

PAR1 [2] = target: T1, PAR1; experiment: Emax (maximal agonist-induced change in ebBRET relative to vehicle) (% of vehicle response (amplitude of change)); higher = larger response (for Gs, larger decrease in membrane ebBRET, i.e. stronger Gs activation)
P2Y2 [3] = target: P2Y2 (UniProt P41231); experiment: pEC50 of agonist-induced pathway activation (ebBRET)
P2Y2 [4] = target: P2Y2 (UniProt P41231); experiment: Emax (maximal agonist-induced change in ebBRET relative to vehicle) (% of vehicle response (amplitude of change)); higher = larger response (for Gs, larger decrease in membrane ebBRET, i.e. stronger Gs activation)
CRFR2 [5] = target: T2, CRFR2 (UniProt Q13324); experiment: pEC50 of agonist-induced pathway activation (ebBRET)
T2 sequence (whole entry): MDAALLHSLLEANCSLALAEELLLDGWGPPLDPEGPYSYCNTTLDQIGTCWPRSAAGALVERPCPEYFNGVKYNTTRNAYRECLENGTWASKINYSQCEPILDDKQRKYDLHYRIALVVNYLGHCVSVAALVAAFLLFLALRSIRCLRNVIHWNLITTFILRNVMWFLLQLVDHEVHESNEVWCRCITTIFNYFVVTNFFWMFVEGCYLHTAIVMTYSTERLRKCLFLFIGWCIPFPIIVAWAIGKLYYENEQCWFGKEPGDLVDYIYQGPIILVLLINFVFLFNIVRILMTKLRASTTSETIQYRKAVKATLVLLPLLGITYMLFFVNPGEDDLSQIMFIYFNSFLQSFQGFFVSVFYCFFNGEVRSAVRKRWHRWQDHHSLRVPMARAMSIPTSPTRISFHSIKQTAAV

CRFR2 [6] = target: T2, CRFR2; experiment: Emax (maximal agonist-induced change in ebBRET relative to vehicle) (% of vehicle response (amplitude of change)); higher = larger response (for Gs, larger decrease in membrane ebBRET, i.e. stronger Gs activation)
GPR39 [7] = target: T3, GPR39 (UniProt O43194); experiment: pEC50 of agonist-induced pathway activation (ebBRET)
T3 sequence (whole entry): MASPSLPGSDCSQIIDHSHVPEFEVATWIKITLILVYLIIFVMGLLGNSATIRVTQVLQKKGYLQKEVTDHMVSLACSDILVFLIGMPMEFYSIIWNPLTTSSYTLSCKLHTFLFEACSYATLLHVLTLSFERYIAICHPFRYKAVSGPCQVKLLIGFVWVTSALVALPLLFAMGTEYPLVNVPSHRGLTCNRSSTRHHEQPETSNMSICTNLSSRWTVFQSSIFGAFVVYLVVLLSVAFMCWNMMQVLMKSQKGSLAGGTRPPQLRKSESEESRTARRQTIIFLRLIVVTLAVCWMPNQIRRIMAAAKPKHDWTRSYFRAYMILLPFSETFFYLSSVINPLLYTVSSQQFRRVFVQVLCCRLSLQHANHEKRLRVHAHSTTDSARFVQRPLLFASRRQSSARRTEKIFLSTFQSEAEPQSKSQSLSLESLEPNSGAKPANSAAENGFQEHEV

GPR39 [8] = target: T3, GPR39; experiment: Emax (maximal agonist-induced change in ebBRET relative to vehicle) (% of vehicle response (amplitude of change)); higher = larger response (for Gs, larger decrease in membrane ebBRET, i.e. stronger Gs activation)
FFA4 [9] = experiment: pEC50 of agonist-induced pathway activation (ebBRET)
FFA4 [10] = experiment: Emax (maximal agonist-induced change in ebBRET relative to vehicle) (% of vehicle response (amplitude of change)); higher = larger response (for Gs, larger decrease in membrane ebBRET, i.e. stronger Gs activation)

Chain of P2Y2 (P41231 whole entry): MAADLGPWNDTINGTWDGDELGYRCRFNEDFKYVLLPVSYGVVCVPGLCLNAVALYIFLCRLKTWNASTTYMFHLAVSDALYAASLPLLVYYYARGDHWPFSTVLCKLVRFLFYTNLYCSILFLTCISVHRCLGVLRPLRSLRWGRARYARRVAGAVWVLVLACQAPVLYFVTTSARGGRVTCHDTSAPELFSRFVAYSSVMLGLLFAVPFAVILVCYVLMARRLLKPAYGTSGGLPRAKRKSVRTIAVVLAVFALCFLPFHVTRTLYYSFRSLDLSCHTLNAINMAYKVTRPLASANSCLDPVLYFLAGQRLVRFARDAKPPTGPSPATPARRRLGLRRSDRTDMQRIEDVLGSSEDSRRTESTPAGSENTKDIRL

CC(C)C[C@H](NC(=O)[C@H](CC(C)C)NC(=O)[C@H](Cc1ccccc1)NC(=O)[C@@H](N)[C@@H](C)O)C(=O)N[C@@H](CCCN=C(N)N)C(N)=O [TFLLR-NH2]
Details	Emax, PAR1 [2]	pEC50, PAR1 [1]
pathway (G protein / arrestin sensor): G11	382	6.55
pathway (G protein / arrestin sensor): G13	193	7.11
pathway (G protein / arrestin sensor): G14	405	5.74
pathway (G protein / arrestin sensor): G15	332	6.22
pathway (G protein / arrestin sensor): Gi1	574	4
pathway (G protein / arrestin sensor): Gi2	177	5.04
pathway (G protein / arrestin sensor): GoA	73	5.89
pathway (G protein / arrestin sensor): GoB	221	6
pathway (G protein / arrestin sensor): Gq	238	6.72
pathway (G protein / arrestin sensor): Gz	144	6.41
pathway (G protein / arrestin sensor): βarr1/GRK2	446	5.08
pathway (G protein / arrestin sensor): βarr2	439	5.12
pathway (G protein / arrestin sensor): βarr2/GRK2	470	5.18

O=c1ccn([C@@H]2O[C@H](COP(=O)(O)OP(=O)(O)OP(=O)(O)O)[C@@H](O)[C@H]2O)c(=O)[nH]1 [UTP]
Details	Emax, P2Y2 [4]	pEC50, P2Y2 [3]
pathway (G protein / arrestin sensor): G11	26.1	6.43
pathway (G protein / arrestin sensor): G14	26.7	6.29
pathway (G protein / arrestin sensor): G15	198	6.08
pathway (G protein / arrestin sensor): Gi1	59.2	6.29
pathway (G protein / arrestin sensor): Gi2	25.9	6.54
pathway (G protein / arrestin sensor): GoA	85.7	5.94
pathway (G protein / arrestin sensor): GoB	54.5	6.37
pathway (G protein / arrestin sensor): Gq	29.2	6.4
pathway (G protein / arrestin sensor): Gz	91.8	6.04
pathway (G protein / arrestin sensor): βarr1/GRK2	185	5.24
pathway (G protein / arrestin sensor): βarr2	346	4.99
pathway (G protein / arrestin sensor): βarr2/GRK2	94.7	5.36

CC[C@H](C)[C@H](N)C(=O)N[C@H](C(=O)N[C@@H](CC(C)C)C(=O)N[C@@H](CO)C(=O)N[C@@H](CC(C)C)C(=O)N[C@@H](CC(=O)O)C(=O)N[C@H](C(=O)N1CCC[C@H]1C(=O)N[C@H](C(=O)NCC(=O)N[C@@H](CC(C)C)C(=O)N[C@@H](CC(C)C)C(=O)N[C@@H](CCC(N)=O)C(=O)N[C@H](C(=O)N[C@@H](CC(C)C)C(=O)N[C@@H](CC(C)C)C(=O)N[C@@H](CCC(=O)O)C(=O)N[C@@H](CCC(N)=O)C(=O)N[C@@H](C)C(=O)N[C@@H](CCCNC(=N)N)C(=O)N[C@@H](C)C(=O)N[C@@H](CCCNC(=N)N)C(=O)N[C@@H](C)C(=O)N[C@@H](C)C(=O)N[C@@H](CCCNC(=N)N)C(=O)N[C@@H](CCC(=O)O)C(=O)N[C@@H](CCC(N)=O)C(=O)N[C@@H](C)C(=O)N[C@H](C(=O)N[C@H](C(=O)N[C@@H](CC(N)=O)C(=O)N[C@@H](C)C(=O)N[C@@H](CCCNC(=N)N)C(=O)N[C@H](C(=O)N[C@@H](CC(C)C)C(=O)N[C@@H](C)C(=O)N[C@@H](CCCNC(=N)N)C(=O)N[C@H](C(=O)NCC(=O)N[C@@H](Cc1cnc[nH]1)C(=O)N[C@@H](CS)C(N)=O)C(C)C)[C@@H](C)CC)[C@@H](C)O)[C@@H](C)O)[C@@H](C)CC)[C@@H](C)CC)C(C)C)C(C)C [Urocortin II]
Details	Emax, CRFR2 [6]	pEC50, CRFR2 [5]
pathway (G protein / arrestin sensor): G15	725	8.77
pathway (G protein / arrestin sensor): Gi1	442	8.2
pathway (G protein / arrestin sensor): Gi2	206	8.28
pathway (G protein / arrestin sensor): GoA	159	8.33
pathway (G protein / arrestin sensor): GoB	263	8.37
pathway (G protein / arrestin sensor): Gs	57.3	10.3
pathway (G protein / arrestin sensor): Gz	72.8	8.2
pathway (G protein / arrestin sensor): βarr1/GRK2	1420	8.08
pathway (G protein / arrestin sensor): βarr2	1090	7.98
pathway (G protein / arrestin sensor): βarr2/GRK2	1440	8.16

[Cl][Zn][Cl] [Zn2+]
Details	Emax, GPR39 [8]	pEC50, GPR39 [7]
pathway (G protein / arrestin sensor): G11	136	4.21
pathway (G protein / arrestin sensor): G13	120	5.39
pathway (G protein / arrestin sensor): G14	210	4.25
pathway (G protein / arrestin sensor): G15	37.6	4.38
pathway (G protein / arrestin sensor): Gi1	254	4.1
pathway (G protein / arrestin sensor): Gi2	80.9	4.19
pathway (G protein / arrestin sensor): GoA	137	4.16
pathway (G protein / arrestin sensor): GoB	197	4.25
pathway (G protein / arrestin sensor): Gq	113	4.48
pathway (G protein / arrestin sensor): βarr2	61.7	4.03
pathway (G protein / arrestin sensor): βarr2/GRK2	41.4	4.02

CC/C=C\C/C=C\C/C=C\CCCCCCCC(=O)O [α-linolenic acid]
Details	Emax, FFA4 [10]	pEC50, FFA4 [9]
pathway (G protein / arrestin sensor): G11	288	5.08
pathway (G protein / arrestin sensor): G13	120	4.8
pathway (G protein / arrestin sensor): G14	297	5.5
pathway (G protein / arrestin sensor): G15	476	5.53
pathway (G protein / arrestin sensor): Gi1	35	6.12
pathway (G protein / arrestin sensor): Gi2	23.3	6.31
pathway (G protein / arrestin sensor): GoA	64	5.6
pathway (G protein / arrestin sensor): GoB	30.2	6.27
pathway (G protein / arrestin sensor): Gq	198	5.1
pathway (G protein / arrestin sensor): βarr1/GRK2	1090	4.7
pathway (G protein / arrestin sensor): βarr2	993	4.94
pathway (G protein / arrestin sensor): βarr2/GRK2	999	4.87
